# Test results published in patent US20210253518A1, “KINASE INHIBITOR” (NISSAN CHEMICAL CORPORATION, priority 2018, published 2021).
# Key:
# [1] = tested on: colitis model administered with dextran sulfate sodium (DSS); assay: DSS colitis model mouse, length of the large intestine; type: in vivo; conditions: 2.5 w/v % DSS drinking water, 50 mg/kg intraperitoneally every 24 hr, day 8, vs 0.5% MC, FIG. 3
# Protocol: Colitis model administered with dextran sulfate sodium (DSS) (manufactured by FUJIFILM Wako Pure Chemical Corporation) was produced as described below. The length of the large intestine is used as a morphological parameter in the evaluation of colitis, and the large intestine shortens according to the degree of inflammation. Therefore, the anti-inflammatory effect of the compound was evaluated by comparing the length of the large intestine.
# Compound K-1:J-1 was prepared as a 0.5 w/v % methylcellulose aqueous solution (0.5% MC, manufactured by FUJIFILM Wako Pure Chemical Corporation) at 5 mg/mL and intraperitoneally administered at 50 mg/kg per administration. 0.5% MC was administered to the negative control.
# As the mouse, male C57BL/6NCrl, 6-week-old, was purchased from CHARLES RIVER LABORATORIES JAPAN, INC. As drinking water, distilled water or a 2.5 w/v % DSS aqueous solution was freely given. The DSS drinking start date was set as day 1, and the water was given until day 8. Compound K-1:J-1 was intraperitoneally administered at 50 mg/kg every 24 hr from day 1. On day 8, the mouse was dissected, the large intestine was isolated and the length of the large intestine was measured. Conducted in 4 cases in each group.
# [2] = tested on: YAP, phosphorylated YAP (Ser127), TAZ; assay: Western blotting of YAP, phosphorylated YAP, TAZ in SKOV3 cells (2D and 3D culture); type: cell-based, human; conditions: 1, 5, 10 μM, 1 hr, both 2D culture and 3D culture, FIG. 1
# Protocol: 2D culture conditions: Human ovarian cancer cell line SKOV3 cultured according to the protocol recommended by DS Pharma Biomedical Co., Ltd. was suspended in McCoy's 5a medium (manufactured by Sigma-Aldrich) containing 15% (v/v) FBS and seeded on a 100 mm plate (manufactured by Corning Incorporated, #430167) at 1,000,000 cells/10 mL and cultured in a CO2 incubator for 24 hr. Successively, k-1:B-1 dissolved in DMSO was added to the culture medium at a final concentration of 1, 5, 10 μM. As the control, the medium without addition and the medium added with DMSO were cultured. After 1 hr, the cells were washed 3 times with ice-cooled phosphate buffered saline (PBS, manufactured by Wako Pure Chemical Industries, Ltd.), 250 μL of RIPA Buffer (manufactured by Wako Pure Chemical Industries, Ltd.) containing a protease inhibitor cocktail (manufactured by Roche) was added, and the cells were lysed with a scraper. […] The supernatant was dispensed, the protein concentration was measured using BCA protein assay kit (manufactured by PIERCE), and then SDS (sodium dodecyl sulfate) gel electrophoresis was performed on the lysate. […] After incubation with a secondary antibody (manufactured by Horseradish peroxidase) linked with an anti-rabbit HRP (horseradish peroxidase) or an anti-mouse HRP, the protein was detected by a chemiluminescence detector (manufactured by BioRad) using ImmunoStar Zeta (manufactured by Wako Pure Chemical Industries, Ltd.).
# 3D culture conditions: According to the method of patent document (WO 2014/017513), a composition of McCoy's 5a medium (manufactured by Sigma-Aldrich) containing 0.015% (w/v) deacylated gellan gum (KELCOGEL CG-LA, manufactured by Sansho Co., Ltd.), 30 ng/mL human HB-EGF (manufactured by PEPROTECH), and 15% (v/v) FBS was prepared. […] The supernatant was dispensed, the protein concentration was measured using BCA protein assay kit (manufactured by PIERCE), and then SDS gel electrophoresis was performed on the lysate. […]
SMILES,length of the large intestine [1],phosphorylation of YAP [2],total TAZ protein amount in the cell [2],total YAP protein amount in the cell [2]
CC/C(=N\NC(=O)NCc1cccc(O)c1)c1ccc(O)c(C)c1O [k-1:J-1],shortening of the large intestine was suppressed more,–,–,–
CC/C(=N\NC(=O)C(C)Nc1ccccc1)c1ccc(O)c(C)c1O (stereo not shown) [k-1:B-1],–,suppressed,increased,increased
